From patent publication US20220031871A1, “ANTIBODIES FOR CHELATED RADIONUCLIDES AND CLEARING AGENTS” (Hoffmann-La Roche Inc., priority 2018, published 2022) come the findings set out here.

SMILES strings stand for the structures.

In one series the test system is s.c. BxPC3 tumors. Description: Protocol 103: efficacy, biodistribution, tolerability of CEA-PRIT. Type of series: in vivo, SCID mice. Here is the method: Step 1: Administration of a BsAb (i.v. or i.p.): The BsAb used in the studies binds Pb-DOTAM with high affinity and targets the tumor e.g. via CEA.
Step 2: Administration of CA (i.v. or i.p.): To allow efficient tumor accumulation of ^212Pb-DOTAM, circulating BsAb needs to be neutralized in the blood using a CA that blocks ^212Pb-DOTAM binding to unbound BsAb, without penetrating into the tumor and consequently blocking the pretargeted sites. The CA is administered once the BsAb has accumulated to a sufficient degree in the tumor, generally after 4-10 days. […]
The body weight (BW) of the study animals was measured at least 3 times per week, with additional measurements as needed depending on the health status. […]
Blood was collected at termination from the venous sinus using retro-orbital bleeding, followed by additional tissue harvest for radioactive measurements and/or histological analysis, as mandated by the protocols. […] Organs and tissues collected for biodistribution purposes were weighed and measured for radioactivity using a 2470 WIZARD^2 automatic gamma counter (PerkinElmer), and the percent injected dose per gram of tissue (% ID/g) subsequently calculated, including corrections for decay and background. […]
where d indicates treatment day and 0 the baseline value. […] Tumor regression (TR) was calculated according to: […]

Another series concerns s.c. WSU-DLCL2 tumors. Nature of the series: Protocol 162: CD20-PRIT and 1-step RIT efficacy and biodistribution. The class given is in vivo, SCID mice. The settings on record: multiple injections of 20 μCi (PRIT). Here is the method: The aim of this study was to show proof-of-concept of the treatment regimen developed for CEA-PRIT directed against an alternative target: cluster of differentiation 20 (CD20). The therapeutic efficacy was evaluated after 3 cycles of CD20-PRIT in mice bearing subcutaneous WSU-DLCL2 tumors. Comparisons were also made with: 1-step CD20-RIT, using BsAbs that were pre-incubated with ^212Pb-DOTAM before injection; with rituximab, a type I monoclonal antibody directed against CD20 and a reference in treatment of CD20+ diseases; and with GA101, a type II monoclonal antibody also directed against CD20.
Animals were treated according to the experimental schedule illustrated in FIG. 59. Solid WSU-DLCL2 xenografts were established in SCID mice aged 8 weeks on study day 0 by subcutaneous injection of 1.5×10^5 cells into the right flank. […]
Mice in groups H, I, and L were sacrificed and necropsied for biodistribution purposes 24 hours after their first and only injection of ^212Pb-DOTAM or ^212Pb-DOTAM-BsAb; groups J and K were sacrificed and necropsied 24 hours after their second and third ^212Pb-DOTAM injection, respectively. […] Collected samples were weighed and then measured for radioactivity using a 2470 WIZARD^2 automatic gamma counter (PerkinElmer), and the percent injected dose per gram of tissue (% ID/g) subsequently calculated, including corrections for decay and background. […]

For the molecule `NC(=O)CN1CCN(CC(N)=O)CCN(CC(N)=O)CCN(CC(N)=O)CC1.[212Pb+2]` [^212Pb-DOTAM], in the series on s.c. BxPC3 tumors (10 μCi, even at multiple injections), the BW loss result is listed as “mild”. Further, the radioactivity level tolerability entry in the series with s.c. BxPC3 tumors (30 μCi under the applied conditions) is “approaching the maximum tolerated activity”. The “tolerability (BW development)” value in the series on s.c. WSU-DLCL2 tumors was “well tolerated”.
